# Entries after “also recorded” stand apart in the source; their conditions may differ.
# Tested on: fibrotic phase associated RNA (TGF-β, TLR4, TLR7), bromodomain transcripts
# Assay: RT-PCR of irradiation induced gene transcripts in lung
# Assay type: in vivo, mouse
# Settings: 20 Gy thoracic irradiation, MMS350 in drinking water
# Protocol: To isolate different cellular compartments of the lung, mice were sacrificed and the pulmonary cavity was opened, and lungs perfused by injecting 5 ml of phosphate-buffered saline (PBS) into the right ventricle of the heart. To isolate pulmonary endothelial cells, the lungs were filled with 1 ml of dispase (39.65 mg/ml), allowed to collapse, and then expanded with 0.5 ml of a 1% low-melt agarose, which had been stored at 45° C. in a water bath. The lungs were immediately covered with ice and incubated for 2 minutes. […] The cells were analyzed by flow cytometry with PECAM+ endothelial cells and PECAM− and CD45− cells alveolar cells isolated.
# RNA was extracted from mouse lung or purified cell populations using the TRIzol reagent (Invitrogen, Carlsbad, Calif.) following the manufacturer's instructions, quantified using a spectrophotometer, and stored at −80° C. […]
smiles,measurement,value
"CC1(C[S+]([O-])CC2(C)COC2)COC1 [Compound 3, 3,3′-Sulfinylbis(methylene)bis(3-methyloxetane)]",bromodomain transcripts,little effect on bromodomain transcripts
same,expression of fibrosis phase mRNA,decreased expression of fibrosis phase mRNA expression; also recorded: downregulation of transcription of mRNA associated with the late pulmonary fibrotic reaction

# Source: US10251860B2, “Compounds for bone healing” (University of Pittsburgh—Of the Commonwealth System of …, priority 2015, dated 2019)
